Measurements published in patent US20240092784A1, “CONDENSED HETEROCYCLIC COMPOUND” (NISSAN CHEMICAL CORPORATION, priority 2020, published 2024).

Target: human SPR (Homo sapiens (Human), UniProt P35270)
Test: Evaluation Example 2: Measurement of human SPR inhibitory activity (seven concentrations, sepiapterin absorbance at 420 nm)
Format: biochemical
Conditions: Evaluation Example 2, seven concentrations 0.14 nM to 100 nM, 240 minutes at room temperature, read-out: IC50
In short: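 His-tagged full-length human SPR (1-261) was expressed in E. coli and the tag removed. Enzyme at 150 ng/mL in 100 mM Tris-HCl pH 7.5/0.01% BSA was mixed with compound (0.14–100 nM, seven points), 120 μM sepiapterin and 160 μM NADPH, both as added-solution concentrations. After 240 min at room temperature, remaining sepiapterin was read at 420 nm to give percent inhibition.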

human SPR, sequence (P35270 whole entry): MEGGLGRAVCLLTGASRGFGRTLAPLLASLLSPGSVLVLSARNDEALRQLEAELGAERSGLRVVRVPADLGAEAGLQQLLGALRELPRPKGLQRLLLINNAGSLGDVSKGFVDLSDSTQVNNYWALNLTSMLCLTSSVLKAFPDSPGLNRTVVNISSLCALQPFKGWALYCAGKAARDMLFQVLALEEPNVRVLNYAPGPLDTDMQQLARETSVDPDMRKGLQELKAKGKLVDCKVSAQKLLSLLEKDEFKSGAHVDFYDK

Row | SMILES | IC50
1 | C/C(=C\c1cnn2c(O)c(C(=O)NC3CC3)c(=O)n(CC(C)C)c12)C(=O)N1CCN(C2CC(F)(F)C2)CC1 [Synthesis Example 255, (E)-N-Cyclopropyl-3-(3-(4-(3,3-difluorocyclobutyl)piperazin-1-yl)-2-methyl-3-oxoprop-1-en-1-yl)-7-hydroxy-4-isobutyl-5-oxo-4,5-dihydropyrazolo[1,5-a]pyrimidine-6-carboxamide] | 1.02 nM
2 | C/C(=C\c1cnn2c(O)c(C(=O)NC3CC3)c(=O)n(CC(C)C)c12)C(=O)N1CCC(F)(F)C1 [Synthesis Example 256, (E)-N-Cyclopropyl-3-(3-(3,3-difluoropyrrolidin-1-yl)-2-methyl-3-oxoprop-1-en-1-yl)-7-hydroxy-4-isobutyl-5-oxo-4,5-dihydropyrazolo[1,5-a]pyrimidine-6-carboxamide] | 0.97 nM
3 | C/C(=C\c1cnn2c(O)c(C(=O)NC3CC3)c(=O)n(CC(C)C)c12)C(=O)NC(C)C [Synthesis Example 257, (E)-N-Cyclopropyl-7-hydroxy-4-isobutyl-3-(3-(isopropylamino)-2-methyl-3-oxoprop-1-en-1-yl)-5-oxo-4,5-dihydropyrazolo[1,5-a]pyrimidine-6-carboxamide] | 1.01 nM
4 | C/C(=C\c1cnn2c(O)c(C(=O)NC3CC3)c(=O)n(CC(C)C)c12)C(=O)N(C)CC#N [Synthesis Example 258, (E)-3-(3-((Cyanomethyl)(methyl)amino)-2-methyl-3-oxoprop-1-en-1-yl)-N-cyclopropyl-7-hydroxy-4-isobutyl-5-oxo-4,5-dihydropyrazolo[1,5-a]pyrimidine-6-carboxamide] | 0.74 nM
5 | CC(C)Cn1c(=O)c(C(=O)NC2CC2)c(O)n2ncc(COc3cccnc3)c12 [Synthesis Example 259, N-Cyclopropyl-7-hydroxy-4-isobutyl-5-oxo-3-((pyridin-3-yloxy)methyl)-4,5-dihydropyrazolo[1,5-a]pyrimidine-6-carboxamide] | 0.18 nM
6 | CC(C)Cn1c(=O)c(C(=O)NC2CC2)c(O)n2ncc(COc3ccccc3)c12 [Synthesis Example 260, N-Cyclopropyl-7-hydroxy-4-isobutyl-5-oxo-3-(phenoxymethyl)-4,5-dihydropyrazolo[1,5-a]pyrimidine-6-carboxamide] | 1.27 nM
7 | CC(C)Cn1c(=O)c(C(=O)NC2CC2)c(O)n2ncc(C#N)c12 [Synthesis Example 261, 3-Cyano-N-cyclopropyl-7-hydroxy-4-isobutyl-5-oxo-4,5-dihydropyrazolo[1,5-a]pyrimidine-6-carboxamide] | 2.27 nM
8 | CC(C)Cn1c(=O)c(C(=O)NC2CC2)c(O)n2ncc(CNC(=O)C3CCOCC3)c12 [Synthesis Example 262, N-Cyclopropyl-7-hydroxy-4-isobutyl-5-oxo-3-((tetrahydro-2H-pyran-4-carboxamido)methyl)-4,5-dihydropyrazolo[1,5-a]pyrimidine-6-carboxamide] | 1.01 nM
9 | CC(C)Cn1c(=O)c(C(=O)NC2CC2)c(O)n2ncc(CNC(=O)C3CCC(F)(F)CC3)c12 [Synthesis Example 263, N-Cyclopropyl-3-((4,4-difluorocyclohexane-1-carboxamido)methyl)-7-hydroxy-4-isobutyl-5-oxo-4,5-dihydropyrazolo[1,5-a]pyrimidine-6-carboxamide] | 1.22 nM
10 | CC(C)Cn1c(=O)c(C(=O)NC2CC2)c(O)n2ncc(CC(=O)N3CCOCC3)c12 [Synthesis Example 264, N-Cyclopropyl-7-hydroxy-4-isobutyl-3-(2-morpholino-2-oxoethyl)-5-oxo-4,5-dihydropyrazolo[1,5-a]pyrimidine-6-carboxamide] | 0.95 nM
11 | CC(C)Cn1c(=O)c(C(=O)NC2CC2)c(O)n2ncc(/C=C/C(C)(C)O)c12 [Synthesis Example 265, (E)-N-Cyclopropyl-7-hydroxy-3-(3-hydroxy-3-methylbut-1-en-1-yl)-4-isobutyl-5-oxo-4,5-dihydropyrazolo[1,5-a]pyrimidine-6-carboxamide] | 0.68 nM
12 | CC(C)Cn1c(=O)c(C(=O)NC2CC2)c(O)n2ncc(/C=C/C3=NCC(C)(C)O3)c12 [Synthesis Example 266, (E)-N-Cyclopropyl-3-(2-(5,5-dimethyl-4,5-dihydrooxazol-2-yl)vinyl)-7-hydroxy-4-isobutyl-5-oxo-4,5-dihydropyrazolo[1,5-a]pyrimidine-6-carboxamide] | 1.58 nM
13 | CC(C)Cn1c(=O)c(C(=O)NC2CC2)c(O)n2ncc(/C=C/c3noc(=O)[nH]3)c12 [Synthesis Example 267, (E)-N-Cyclopropyl-7-hydroxy-4-isobutyl-5-oxo-3-(2-(5-oxo-4,5-dihydro-1,2,4-oxadiazol-3-yl)vinyl)-4,5-dihydropyrazolo[1,5-a]pyrimidine-6-carboxamide] | 14.3 nM
14 | Cc1nnc(/C=C/c2cnn3c(O)c(C(=O)NC4CC4)c(=O)n(CC(C)C)c23)s1 [Synthesis Example 268, (E)-N-Cyclopropyl-7-hydroxy-4-isobutyl-3-(2-(5-methyl-1,3,4-thiadiazol-2-yl)vinyl)-5-oxo-4,5-dihydropyrazolo[1,5-a]pyrimidine-6-carboxamide] | 1.04 nM
15 | Cc1nnc(/C=C/c2cnn3c(O)c(C(=O)NC4CC4)c(=O)n(CC(C)C)c23)o1 [Synthesis Example 269, (E)-N-Cyclopropyl-7-hydroxy-4-isobutyl-3-(2-(5-methyl-1,3,4-oxadiazol-2-yl)vinyl)-5-oxo-4,5-dihydropyrazolo[1,5-a]pyrimidine-6-carboxamide] | 1.17 nM
16 | COC(C)(C)Cn1c(=O)c(C(=O)NC2CC2)c(O)n2nc(Br)cc12 [Synthesis Example 270, 2-Bromo-N-cyclopropyl-7-hydroxy-4-(2-methoxy-2-methylpropyl)-5-oxo-4,5-dihydropyrazolo[1,5-a]pyrimidine-6-carboxamide] | 1.16 nM
17 | COC(C)(C)Cn1c(=O)c(C(=O)NC2CC2)c(O)n2nc(-c3cccnc3N)cc12 [Synthesis Example 271, 2-(2-Aminopyridin-3-yl)-N-cyclopropyl-7-hydroxy-4-(2-methoxy-2-methylpropyl)-5-oxo-4,5-dihydropyrazolo[1,5-a]pyrimidine-6-carboxamide] | 1.08 nM
18 | CC(C)(C)Cn1c(=O)c(C(=O)NCC(F)(F)F)c(O)n2nc(Br)cc12 [Synthesis Example 272, 2-Bromo-7-hydroxy-4-neopentyl-5-oxo-N-(2,2,2-trifluoroethyl)-4,5-dihydropyrazolo[1,5-a]pyrimidine-6-carboxamide] | 3.78 nM
19 | CC(C)Cn1c(=O)c(C(=O)NCC(F)(F)F)c(O)n2nc(Br)cc12 [Synthesis Example 273, 2-Bromo-7-hydroxy-4-isobutyl-5-oxo-N-(2,2,2-trifluoroethyl)-4,5-dihydropyrazolo[1,5-a]pyrimidine-6-carboxamide] | 11.6 nM
20 | CC(C)(C)Cn1c(=O)c(C(=O)NC2CC2)c(O)n2nc(CN3CCCCC3)cc12 [Synthesis Example 274, N-Cyclopropyl-7-hydroxy-4-neopentyl-5-oxo-2-(piperidin-1-ylmethyl)-4,5-dihydropyrazolo[1,5-a]pyrimidine-6-carboxamide] | 9.46 nM
21 | COC(C)(C)Cn1c(=O)c(C(=O)NC2CC2)c(O)n2nc(C(N)=O)cc12 [Synthesis Example 275, N6-Cyclopropyl-7-hydroxy-4-(2-methoxy-2-methylpropyl)-5-oxo-4,5-dihydropyrazolo[1,5-a]pyrimidine-2,6-dicarboxamide] | 0.68 nM
22 | NC(=O)c1cc2n(CC3CCC(F)(F)CC3)c(=O)c(C(=O)NC3CC3)c(O)n2n1 [Synthesis Example 276, N6-Cyclopropyl-4-((4,4-difluorocyclohexyl)methyl)-7-hydroxy-5-oxo-4,5-dihydropyrazolo[1,5-a]pyrimidine-2,6-dicarboxamide] | 0.68 nM
23 | CC(C)(Cn1c(=O)c(C(=O)NC2CC2)c(O)n2nc(C(N)=O)cc12)C(F)(F)F [Synthesis Example 277, N6-Cyclopropyl-7-hydroxy-5-oxo-4-(3,3,3-trifluoro-2,2-dimethylpropyl)-4,5-dihydropyrazolo[1,5-a]pyrimidine-2,6-dicarboxamide] | 0.82 nM
24 | CC(C)(C)Cn1c(=O)c(C(=O)NC2CC2)c(O)n2nc(C(C)(C)O)cc12 [Synthesis Example 278, N-Cyclopropyl-7-hydroxy-2-(2-hydroxypropan-2-yl)-4-neopentyl-5-oxo-4,5-dihydropyrazolo[1,5-a]pyrimidine-6-carboxamide] | 1.87 nM
25 | CC(C)(C)Cn1c(=O)c(C(=O)NC2CC2)c(O)n2nc(C#N)cc12 [Synthesis Example 279, 2-Cyano-N-cyclopropyl-7-hydroxy-4-neopentyl-5-oxo-4,5-dihydropyrazolo[1,5-a]pyrimidine-6-carboxamide] | 1.76 nM
26 | COc1ncccc1-c1cc2n(CC(C)(C)C)c(=O)c(C(=O)NC3CC3)c(O)n2n1 [Synthesis Example 281, N-Cyclopropyl-7-hydroxy-2-(2-methoxypyridine-3-yl)-4-neopentyl-5-oxo-4,5-dihydropyrazolo[1,5-a]pyrimidine-6-carboxamide] | 3.08 nM
27 | COc1ccncc1-c1cc2n(CC(C)(C)C)c(=O)c(C(=O)NC3CC3)c(O)n2n1 [Synthesis Example 282, N-Cyclopropyl-7-hydroxy-2-(4-methoxypyridine-3-yl)-4-neopentyl-5-oxo-4,5-dihydropyrazolo[1,5-a]pyrimidine-6-carboxamide] | 4.73 nM
28 | CC(C)(C)Cn1c(=O)c(C(=O)NC2CC2)c(O)n2nc(-c3cccnc3F)cc12 [Synthesis Example 283, N-Cyclopropyl-2-(2-fluoropyridine-3-yl)-7-hydroxy-4-neopentyl-5-oxo-4,5-dihydropyrazolo[1,5-a]pyrimidine-6-carboxamide] | 2.35 nM
29 | CC(C)(C)Cn1c(=O)c(C(=O)NC2CC2)c(O)n2nc(-c3cccnc3C(F)(F)F)cc12 [Synthesis Example 284, N-Cyclopropyl-7-hydroxy-4-neopentyl-5-oxo-2-(2-(trifluoromethyl)pyridin-3-yl)-4,5-dihydropyrazolo[1,5-a]pyrimidine-6-carboxamide] | 3.93 nM
